One test addresses Rho kinase 2 (ROCK-II) (Homo sapiens, UniProt O75116). Kind of test: In vitro Rho kinase inhibitory activity assay (ADP-Glo), Rho kinase 2. Format: biochemical. The settings on record: 10 μM ATP, 25° C., expressed as range of activity. Put shortly: (§1)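 First, compound was incubated with either Rho kinase isoform for 30 mins at 25 °C; next, ATP was added to 10 μM final with 2.5 μM Myelin Basic Protein substrate; after 1 hour, ADP formed was detected by ADP-Glo luminescence. Dose-response data yielded IC50, converted to Ki using Cheng-Prusoff.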
(ADP-Glo first removes unused ATP, then detects ADP through luciferase.)

In the next test the target is Rho kinase 1 (ROCK-I) (Homo sapiens, UniProt Q13464). Briefly: In vitro Rho kinase inhibitory activity assay (ADP-Glo), Rho kinase 1. Format: biochemical. The conditions noted are these: 10 μM ATP, 25° C., expressed as range of activity. The essentials: as §1

The Ki is a measure of affinity in units of concentration, obtained from inhibition or displacement. Low readings indicate higher affinity, high ones lower affinity.

SMILES strings stand for the structures.

Sequence of Rho kinase 1 (ROCK-I) (Q13464 whole entry): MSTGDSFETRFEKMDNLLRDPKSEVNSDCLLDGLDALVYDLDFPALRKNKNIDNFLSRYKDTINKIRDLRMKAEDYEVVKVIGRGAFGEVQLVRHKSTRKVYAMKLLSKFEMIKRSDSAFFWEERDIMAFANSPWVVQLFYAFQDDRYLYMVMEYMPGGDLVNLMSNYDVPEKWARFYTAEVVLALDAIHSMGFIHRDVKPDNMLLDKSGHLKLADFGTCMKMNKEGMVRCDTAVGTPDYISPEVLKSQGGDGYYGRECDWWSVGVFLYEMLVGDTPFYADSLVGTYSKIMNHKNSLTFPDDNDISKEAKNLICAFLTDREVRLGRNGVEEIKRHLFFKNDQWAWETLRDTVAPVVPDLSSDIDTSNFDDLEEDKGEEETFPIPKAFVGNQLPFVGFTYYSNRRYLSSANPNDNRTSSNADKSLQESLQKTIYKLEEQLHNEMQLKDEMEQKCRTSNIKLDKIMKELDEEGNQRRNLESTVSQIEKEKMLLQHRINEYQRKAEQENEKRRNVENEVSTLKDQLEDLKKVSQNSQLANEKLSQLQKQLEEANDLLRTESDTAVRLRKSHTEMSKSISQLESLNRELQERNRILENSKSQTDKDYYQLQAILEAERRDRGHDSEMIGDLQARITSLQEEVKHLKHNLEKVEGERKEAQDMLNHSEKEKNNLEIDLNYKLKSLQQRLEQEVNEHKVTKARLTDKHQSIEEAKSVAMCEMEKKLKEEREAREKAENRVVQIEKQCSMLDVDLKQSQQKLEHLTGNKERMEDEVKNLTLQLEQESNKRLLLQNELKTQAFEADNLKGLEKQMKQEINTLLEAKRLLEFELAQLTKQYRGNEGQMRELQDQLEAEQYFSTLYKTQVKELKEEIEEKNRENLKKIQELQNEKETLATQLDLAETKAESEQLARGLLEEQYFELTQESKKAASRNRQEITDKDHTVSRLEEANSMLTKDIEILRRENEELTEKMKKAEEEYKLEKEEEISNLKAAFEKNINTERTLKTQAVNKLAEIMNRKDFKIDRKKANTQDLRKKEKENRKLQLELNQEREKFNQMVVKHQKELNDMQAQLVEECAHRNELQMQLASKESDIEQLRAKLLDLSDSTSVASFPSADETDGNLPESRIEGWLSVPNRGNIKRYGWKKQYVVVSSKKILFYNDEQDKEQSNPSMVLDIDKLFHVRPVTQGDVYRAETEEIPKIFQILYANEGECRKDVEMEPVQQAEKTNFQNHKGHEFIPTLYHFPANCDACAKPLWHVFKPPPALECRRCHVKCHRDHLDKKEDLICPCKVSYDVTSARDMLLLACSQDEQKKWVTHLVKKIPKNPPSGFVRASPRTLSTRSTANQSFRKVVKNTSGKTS
Sequence of Rho kinase 2 (ROCK-II) (O75116 whole entry, canonical isoform): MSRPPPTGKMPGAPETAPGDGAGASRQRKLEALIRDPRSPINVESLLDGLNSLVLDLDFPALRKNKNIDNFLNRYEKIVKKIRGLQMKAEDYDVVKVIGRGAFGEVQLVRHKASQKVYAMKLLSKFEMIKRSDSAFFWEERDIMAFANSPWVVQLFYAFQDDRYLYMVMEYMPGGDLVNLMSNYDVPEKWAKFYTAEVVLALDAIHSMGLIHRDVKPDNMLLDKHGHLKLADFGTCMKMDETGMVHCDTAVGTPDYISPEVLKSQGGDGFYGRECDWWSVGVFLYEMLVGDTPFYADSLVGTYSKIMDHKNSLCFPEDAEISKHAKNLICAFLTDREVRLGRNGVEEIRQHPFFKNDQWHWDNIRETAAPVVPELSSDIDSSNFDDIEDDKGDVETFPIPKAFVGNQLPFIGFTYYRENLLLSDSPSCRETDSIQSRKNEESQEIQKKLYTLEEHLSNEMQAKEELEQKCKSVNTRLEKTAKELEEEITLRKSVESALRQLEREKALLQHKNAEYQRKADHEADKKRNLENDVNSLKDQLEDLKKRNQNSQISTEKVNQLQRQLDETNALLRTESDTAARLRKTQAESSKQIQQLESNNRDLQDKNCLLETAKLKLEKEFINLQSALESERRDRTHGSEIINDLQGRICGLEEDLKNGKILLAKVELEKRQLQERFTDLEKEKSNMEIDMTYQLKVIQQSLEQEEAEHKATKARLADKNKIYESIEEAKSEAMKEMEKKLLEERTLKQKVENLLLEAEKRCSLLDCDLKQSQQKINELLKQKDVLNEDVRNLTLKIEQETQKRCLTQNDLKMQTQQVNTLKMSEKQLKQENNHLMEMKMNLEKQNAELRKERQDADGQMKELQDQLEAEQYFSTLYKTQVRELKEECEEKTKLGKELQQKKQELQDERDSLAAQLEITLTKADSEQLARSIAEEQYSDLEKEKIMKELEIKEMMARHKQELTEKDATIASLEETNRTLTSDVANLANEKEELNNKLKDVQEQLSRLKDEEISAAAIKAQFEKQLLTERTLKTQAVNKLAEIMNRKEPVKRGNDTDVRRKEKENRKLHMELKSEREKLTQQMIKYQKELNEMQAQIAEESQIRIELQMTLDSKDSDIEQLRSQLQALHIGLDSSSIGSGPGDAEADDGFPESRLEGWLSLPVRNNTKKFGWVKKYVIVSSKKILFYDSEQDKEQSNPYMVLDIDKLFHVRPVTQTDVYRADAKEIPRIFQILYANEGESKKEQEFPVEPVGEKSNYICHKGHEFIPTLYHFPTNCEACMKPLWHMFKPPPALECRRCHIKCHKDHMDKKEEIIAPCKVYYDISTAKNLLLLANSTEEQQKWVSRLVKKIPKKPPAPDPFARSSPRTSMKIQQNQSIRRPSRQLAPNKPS

Turning to `Cc1c[nH]c2nccc(Oc3ccc(C[C@H](N)C(=O)N4CCC(Cc5ccccc5)CC4)cc3F)c12` [Example 13, (S)-2-amino-1-(4-benzylpiperidin-1-yl)-3-(3-fluoro-4-((3-methyl-1H-pyrrolo[2,3-b]pyridin-4-yl)oxy)phenyl)propan-1-one], the Ki at Rho kinase 2 (ROCK-II) and at Rho kinase 1 (ROCK-I) was under 3 nM throughout.
Regarding `Cc1c[nH]c2nccc(Oc3ccc(C[C@H](N)C(=O)N4CCc5ccccc5C4)cc3F)c12` [Example 10, (S)-2-amino-1-(3,4-dihydroisoquinolin-2(1H)-yl)-3-(3-fluoro-4-((3-methyl-1H-pyrrolo[2,3-b]pyridin-4-yl)oxy)phenyl)propan-1-one], the Ki on Rho kinase 2 (ROCK-II) and at Rho kinase 1 (ROCK-I) was under 3 nM each time.
As to `N[C@@H](Cc1ccc(Oc2ccnc3[nH]cc(-c4ccc(O)cc4)c23)cc1)C(=O)N1CCN(Cc2ccccc2)CC1` [Example 200, (S)-2-amino-1-(4-benzylpiperazin-1-yl)-3-(4-((3-(4-hydroxyphenyl)-1H-pyrrolo[2,3-b]pyridin-4-yl)oxy)phenyl)propan-1-one], the Ki on Rho kinase 2 (ROCK-II) and on Rho kinase 1 (ROCK-I) was under 3 nM each time.
With `Cc1c[nH]c2nccc(Oc3ccc(CC(N)C(=O)Nc4cccnc4)cc3F)c12` (stereo not drawn) [Example 70, 2-amino-3-(3-fluoro-4-((3-methyl-1H-pyrrolo[2,3-b]pyridin-4-yl)oxy)phenyl)-N-(pyridin-3-yl)propanamide], the Ki on Rho kinase 2 (ROCK-II) and on Rho kinase 1 (ROCK-I) was under 3 nM throughout.
Consider `N[C@@H](Cc1ccc(Oc2ccnc3[nH]cc(CO)c23)c(F)c1)C(=O)N1CCN(Cc2ccccn2)CC1` [Example 213, (S)-2-amino-3-(3-fluoro-4-((3-(hydroxymethyl)-1H-pyrrolo[2,3-b]pyridin-4-yl)oxy)phenyl)-1-(4-(pyridin-2-ylmethyl)piperazin-1-yl)propan-1-one], for which the inhibitory constant (Ki) on Rho kinase 2 (ROCK-II) and at Rho kinase 1 (ROCK-I) was under 3 nM each time.
Consider `Cc1c[nH]c2nccc(Oc3ccc(C[C@H](N)C(=O)NC4CCCCC4)cc3F)c12` [Example 20, (S)-2-amino-N-cyclohexyl-3-(3-fluoro-4-((3-methyl-1H-pyrrolo[2,3-b]pyridin-4-yl)oxy)phenyl)propanamide], for which the Ki at Rho kinase 2 (ROCK-II) and on Rho kinase 1 (ROCK-I) was under 3 nM in each case.
For the compound `Cc1c[nH]c2nccc(Oc3ccc(C[C@@H](N)C(=O)NC4CCCCC4)cc3F)c12` [Example 148, (R)-2-amino-N-cyclohexyl-3-(3-fluoro-4-((3-methyl-1H-pyrrolo[2,3-b]pyridin-4-yl)oxy)phenyl)propanamide], the Ki on Rho kinase 2 (ROCK-II) and on Rho kinase 1 (ROCK-I) was under 3 nM in each case.
In the case of `Cc1c[nH]c2nccc(Oc3ccc(C[C@H](N)C(=O)N4CCN(Cc5cncnc5)CC4)cc3F)c12` [Example 162, (S)-2-amino-3-(3-fluoro-4-((3-methyl-1H-pyrrolo[2,3-b]pyridin-4-yl)oxy)phenyl)-1-(4-(pyrimidin-5-ylmethyl)piperazin-1-yl)propan-1-one], the inhibitory constant (Ki) on Rho kinase 2 (ROCK-II) and on Rho kinase 1 (ROCK-I) was under 3 nM in each case.
Turning to `Cc1c[nH]c2nccc(Oc3ccc(CC(N)C(=O)Nc4cccc5cnccc45)cc3F)c12` (stereo not drawn) [Example 78, 2-amino-3-(3-fluoro-4-((3-methyl-1H-pyrrolo[2,3-b]pyridin-4-yl)oxy)phenyl)-N-(isoquinolin-5-yl)propanamide], the Ki at Rho kinase 2 (ROCK-II) and on Rho kinase 1 (ROCK-I) was under 3 nM throughout.
For `Cc1c[nH]c2nccc(Oc3ccc(C[C@H](N)C(=O)N4CCN(Cc5cnc6ccccc6n5)CC4)cc3F)c12` [Example 159, (S)-2-amino-3-(3-fluoro-4-((3-methyl-1H-pyrrolo[2,3-b]pyridin-4-yl)oxy)phenyl)-1-(4-(quinoxalin-2-ylmethyl)piperazin-1-yl)propan-1-one], the Ki at Rho kinase 2 (ROCK-II) and at Rho kinase 1 (ROCK-I) was under 3 nM each time.
For the compound `Cc1c[nH]c2ncnc(Oc3ccc(C[C@H](N)C(=O)N4CCC(c5ccncc5)CC4)cc3F)c12` [Example 122, (S)-2-amino-3-(3-fluoro-4-((5-methyl-7H-pyrrolo[2,3-d]pyrimidin-4-yl)oxy)phenyl)-1-(4-(pyridin-4-yl)piperidin-1-yl)propan-1-one], the results for the Ki on Rho kinase 2 (ROCK-II) and on Rho kinase 1 (ROCK-I) were under 3 nM and 3 to 30 nM, respectively.
Turning to `CN[C@@H](Cc1ccc(Oc2ccnc3[nH]ccc23)cc1)C(=O)NC1CCCCC1` [Example 131, (S)-3-(4-((1H-pyrrolo[2,3-b]pyridin-4-yl)oxy)phenyl)-N-cyclohexyl-2-(methylamino)propanamide], the results for the Ki on Rho kinase 2 (ROCK-II) and on Rho kinase 1 (ROCK-I) were under 3 nM and 3 to 30 nM, respectively.
As to `CC(N)(Cc1ccc(Oc2ccnc3[nH]ccc23)cc1)C(=O)NC1CCCCC1` (stereo not drawn) [Example 150, 3-(4-((1H-pyrrolo[2,3-b]pyridin-4-yl)oxy)phenyl)-2-amino-N-cyclohexyl-2-methylpropanamide], the Ki at Rho kinase 2 (ROCK-II) and at Rho kinase 1 (ROCK-I) was 3 to 30 nM throughout.
For the compound `CN1CCC(NC(=O)[C@@H](N)Cc2ccc(Oc3ccnc4[nH]ccc34)cc2)CC1` [Example 103, (S)-3-(4-((1H-pyrrolo[2,3-b]pyridin-4-yl)oxy)phenyl)-2-amino-N-(1-methylpiperidin-4-yl)propanamide], the Ki at Rho kinase 2 (ROCK-II) and on Rho kinase 1 (ROCK-I) was 3 to 30 nM in each case.
With `Cc1c[nH]c2nccc(Oc3ccc(C[C@H](N)C(=O)N4CCOC(c5ccccc5)C4)cc3F)c12` (mixture of isomers) [Example 4, (2S)-2-amino-3-(3-fluoro-4-((3-methyl-1H-pyrrolo[2,3-b]pyridin-4-yl)oxy)phenyl)-1-(2-phenylmorpholino)propan-1-one], the Ki at Rho kinase 2 (ROCK-II) and at Rho kinase 1 (ROCK-I) was under 3 nM each time.
`CN1C[C@@H]2C[C@H]1CN2C(=O)[C@@H](N)Cc1ccc(Oc2ccnc3[nH]cc(CO)c23)c(F)c1` [Example 211, (S)-2-amino-3-(3-fluoro-4-((3-(hydroxymethyl)-1H-pyrrolo[2,3-b]pyridin-4-yl)oxy)phenyl)-1-((1S,4S)-5-methyl-2,5-diazabicyclo[2.2.1]-heptan-2-yl)propan-1-one]: the Ki at Rho kinase 2 (ROCK-II) and on Rho kinase 1 (ROCK-I) was 3 to 30 nM throughout.
Consider `CN(C)CCCNC(=O)[C@@H](N)Cc1ccc(Oc2ccnc3[nH]cc(CO)c23)c(F)c1` [Example 212, (S)-2-amino-N-(3-(dimethylamino)-propyl)-3-(3-fluoro-4-((3-(hydroxymethyl)-1H-pyrrolo[2,3-b]pyridin-4-yl)oxy)phenyl)propanamide], for which the Ki on Rho kinase 2 (ROCK-II) and at Rho kinase 1 (ROCK-I) was 3 to 30 nM each time.
Consider `Cc1c[nH]c2nccc(Oc3ccc(C[C@H](N)C(=O)N(C)C4CCN(C)CC4)cc3F)c12` [Example 44, (S)-2-amino-3-(3-fluoro-4-((3-methyl-1H-pyrrolo[2,3-b]pyridin-4-yl)oxy)phenyl)-N-methyl-N-(1-methylpiperidin-4-yl)propanamide], for which the results for the Ki at Rho kinase 2 (ROCK-II) and at Rho kinase 1 (ROCK-I) were under 3 nM and 3 to 30 nM, respectively.
Regarding `Cc1c[nH]c2nccc(Oc3ccc(C[C@H](N)C(=O)NC4CCN(C)CC4)cc3F)c12` [Example 1, (S)-2-amino-3-(3-fluoro-4-((3-methyl-1H-pyrrolo[2,3-b]pyridin-4-yl)oxy)phenyl)-N-(1-methylpiperidin-4-yl)propanamide], the Ki at Rho kinase 2 (ROCK-II) and at Rho kinase 1 (ROCK-I) was under 3 nM each time.
For `N[C@H](Cc1ccc(Oc2ccnc3[nH]ccc23)cc1)C(=O)Nc1nccs1` [Example 106, (R)-3-(4-((1H-pyrrolo[2,3-b]pyridin-4-yl)oxy)phenyl)-2-amino-N-(thiazol-2-yl)propanamide], the Ki at Rho kinase 2 (ROCK-II) and on Rho kinase 1 (ROCK-I) was over 30 nM each time.
Regarding `N#Cc1ccc(-c2c[nH]c3nccc(Oc4ccc(C[C@H](N)C(=O)N5CCN(Cc6ccccc6)CC5)cc4)c23)s1` [Example 195, (S)-5-(4-(4-(2-amino-3-(4-benzylpiperazin-1-yl)-3-oxopropyl)phenoxy)-1H-pyrrolo[2,3-b]pyridin-3-yl)thiophene-2-carbonitrile], the Ki at Rho kinase 2 (ROCK-II) and on Rho kinase 1 (ROCK-I) was under 3 nM throughout.
On to `N[C@@H](Cc1ccc(Oc2ccnc3[nH]ccc23)c(F)c1)C(=O)NC1CCCCC1` [Example 146, (S)-3-(4-((1H-pyrrolo[2,3-b]pyridin-4-yl)oxy)-3-fluorophenyl)-2-amino-N-cyclohexylpropanamide], for which the Ki at Rho kinase 2 (ROCK-II) and on Rho kinase 1 (ROCK-I) was under 3 nM throughout.
As for `Cc1c[nH]c2ncnc(Oc3ccc(C[C@H](N)C(=O)N4CCN(Cc5ccccc5)CC4)cc3F)c12` [Example 115, (S)-2-amino-1-(4-benzylpiperazin-1-yl)-3-(3-fluoro-4-((5-methyl-7H-pyrrolo[2,3-d]pyrimidin-4-yl)oxy)phenyl)propan-1-one], the Ki at Rho kinase 2 (ROCK-II) and on Rho kinase 1 (ROCK-I) was under 3 nM each time.
For the compound `Cc1c[nH]c2nccc(Oc3ccc(C[C@H](N)C(=O)N4CCN(C(=O)c5cccnc5)CC4)cc3F)c12` [Example 174, (S)-2-amino-3-(3-fluoro-4-((3-methyl-1H-pyrrolo[2,3-b]pyridin-4-yl)oxy)phenyl)-1-(4-nicotinoylpiperazin-1-yl)propan-1-one], the Ki on Rho kinase 2 (ROCK-II) and at Rho kinase 1 (ROCK-I) was under 3 nM each time.
For `CC(N)(Cc1ccc(Oc2ccnc3[nH]ccc23)cc1)C(=O)NC1CCOCC1` (stereo not drawn) [Example 151, 3-(4-((1H-pyrrolo[2,3-b]pyridin-4-yl)oxy)phenyl)-2-amino-2-methyl-N-(tetrahydro-2H-pyran-4-yl)propanamide], the Ki at Rho kinase 2 (ROCK-II) and at Rho kinase 1 (ROCK-I) was over 30 nM throughout.
On to `Cc1c[nH]c2nccc(Oc3ccc(CC(N)C(=O)N4CCN(C5CC5)CC4)cc3F)c12` (stereo not drawn) [Example 60, 2-amino-1-(4-cyclopropylpiperazin-1-yl)-3-(3-fluoro-4-((3-methyl-1H-pyrrolo[2,3-b]pyridin-4-yl)oxy)phenyl)propan-1-one], for which the Ki on Rho kinase 2 (ROCK-II) and on Rho kinase 1 (ROCK-I) was under 3 nM throughout.
For the compound `CC(=O)N1CCN(C(=O)C(N)Cc2ccc(Oc3ccnc4[nH]cc(C)c34)c(F)c2)CC1` (stereo not drawn) [Example 133, 1-(4-acetylpiperazin-1-yl)-2-amino-3-(3-fluoro-4-((3-methyl-1H-pyrrolo[2,3-b]pyridin-4-yl)oxy)phenyl)propan-1-one], the Ki at Rho kinase 2 (ROCK-II) and on Rho kinase 1 (ROCK-I) was under 3 nM throughout.

The record behind these values is patent publication US10501461B2, “Tyrosine amide derivatives as Rho-kinase inhibitors” (CHIESI FARMACEUTICI S.P.A., priority 2017, dated 2019).
